The text below walks through data of patent publication US7855309B2, “Pesticide benzyloxy- and phenetyl-substituted phenyl-amidine derivatives” (Bayer CropScience AG, priority 2005, dated 2010).

Series [1] deals with Heliothis viresens. Kind of series: In vivo protective test on Heliothis virescens (HELIVI). Also noted: species or system Heliotis virescens. The following applies: soybean leaf sections, eggs. Here is the method:
In Vivo Protective Test on Heliothis viresens (HELIVI)
Solvent: 78 parts by weight acetone
• 1.5 parts by weight dimethylformamide Wetting agent: 0.5 parts by weight alkylarylpolyglcolether
To produce a suitable preparation of active compound, 1 part by weight of active compound is mixed with the stated amount of solvent and emulsifier, and the concentrate is diluted with emulsifier-containing water to the desired concentration.
Soybean (Glycine max.) leaf sections are sprayed with a preparation of the active ingredient of the desired concentration. Once dry, the leaf sections are infested with eggs of cotton bollworm (Heliotis virescens).
After the specified period of time, mortality in % is determined. 100% means that all eggs have been killed and 0% means that none of the eggs have been killed.

In series [2] the test system is Aedes aegypti larvae. Kind of series: In vivo protective test on Aedes aegypti (AEDSAE U). Here is the method: In Vivo Protective Test on Aedes Aegypti (AEDSAE U)
Solvent: 1% N-methylpyrrolidone (NMP)
• 1% diacetonealcohol Dye: brillantsulfoflavin for staining water
To produce a suitable preparation of the active compound, the active compound is mixed with the stated amount of solvent, and the concentrate is diluted with staining water to the desired concentration.
Aedes aegypti larvae are pipetted with a preparation of active ingredient of the desired concentration.
After the specified period of time, mortality in % is determined. 100% means that all larvae have been killed, a 0% means that none of the larvae have been killed.

Series [3] in a line: logP by HPLC on reversed-phase column (EEC Directive 79/831 Annex V.A8). It counts as physicochemical. The following applies: HPLC, C18, 40° C., 0.1% aqueous formic acid and acetonitrile. Here is the method: Temperature: 40° C.; Mobile phases: 0.1% aqueous formic acid and acetonitrile; linear gradient from 10% acetonitrile to 90% acetonitrile.
Calibration was carried out using unbranched alkan-2-ones (comprising 3 to 16 carbon atoms) with known logP values (determination of the logP values by the retention times using linear interpolation between two successive alkanones).

As usually defined, the log P is the decadic logarithm of the partition coefficient of the neutral form, usually between octanol and water. Higher therefore signals a more lipophilic compound. As for `CCN(C)C=Nc1cc(C)c(OC(C)c2ccc(F)cc2)cc1C` (stereo not drawn) [Compound 6], the “activity (mortality)” value in series [1] and in series [2] was “good activity” in each case. In addition, the “log P” value in series [3] is 2.08.
Regarding `CCN(C)C=Nc1cc(C)c(OCc2cccc(Cl)c2)cc1C` [Compound 7], the “activity (mortality)” value in series [1] and in series [2] was “good activity” throughout. Besides, in series [3], the “log P” value is 2.13.
